In US20070128217A1 (priority 2003, published 2007):

How the values were obtained:
[1] = system: antibodies in sera from SARS patients (sera 1a, 1b, 2, 6, 37, 62, London, SARS-yellow, SARS-green); type: binding, human; set-up: Binding of serum 6 to linear peptides of protein X1 of SARS-CoV Urbani / Binding of serum 37 to linear peptides of protein X1 of SARS-CoV Urbani / Binding of serum 6 to looped/cyclic peptide (PEPSCAN-ELISA) / Binding of serum 37 to looped/cyclic peptide (PEPSCAN-ELISA) / Binding of serum 37 to looped/cyclic peptides of protein X1 of SARS-CoV Urbani / Binding of serum 6 to linear peptides of protein X2 / Binding of serum 37 to linear peptides of protein X2 / Binding of serum 37 to looped/cyclic peptides of protein X2 of SARS-CoV Urbani / Binding of serum 6 to linear peptides of protein M of SARS-CoV Urbani / Binding of serum 37 to linear peptides of protein M of SARS-CoV Urbani / Binding of serum 6 to looped/cyclic peptides of protein M of SARS-CoV Urbani / Binding of serum 37 to looped/cyclic peptides of protein M of SARS-CoV Urbani / Binding of serum 6 to linear peptides of protein X3 of SARS-CoV Urbani / Binding of serum 37 to linear peptides of protein X3 of SARS-CoV Urbani / Binding of serum 37 to looped/cyclic peptides of protein X3 of SARS-CoV Urbani / Binding of serum 6 to linear peptides of protein X4 of SARS-CoV Urbani / Binding of serum 37 to linear peptides of protein X4 of SARS-CoV Urbani / Binding of serum 37 to looped/cyclic peptides of protein X4 of SARS-CoV Urbani / Binding of serum 6 to linear peptides of protein X5 of SARS-CoV Urbani / Binding of serum 37 to linear peptides of protein X5 of SARS-CoV Urbani / Binding of serum 37 to looped/cyclic peptides of protein X5 of SARS-CoV Urbani / Binding of serum 6 to linear peptides of protein N of SARS-CoV Urbani / Binding of serum 37 to linear peptides of protein N of SARS-CoV Urbani / Binding of serum 6 to linear peptide (PEPSCAN-ELISA) / Binding of serum 1a to looped/cyclic peptides of protein N of SARS-CoV Urbani / Binding of serum 1b to looped/cyclic peptides of protein N of SARS-CoV Urbani / Binding of serum 2 to looped/cyclic peptides of protein N of SARS-CoV Urbani / Binding of serum 6 to looped/cyclic peptides of protein N of SARS-CoV Urbani / Binding of serum 37 to looped/cyclic peptides of protein N of SARS-CoV Urbani / Binding of serum 62 to looped/cyclic peptides of protein N of SARS-CoV Urbani / Binding of serum London to looped/cyclic peptides of protein N of SARS-CoV Urbani / Binding of serum SARS-green to looped/cyclic peptides of protein N of SARS-CoV Urbani: unit not given here
[2] = system: control sera (pooled serum of ten healthy LUMC hospital workers; commercial negative donor pooled serum from the Dutch bloodbank); type: binding, human; set-up: Binding of Control serum LUMC to linear peptides / Binding of Control serum Blood-bank to linear peptides / Binding of Control serum LUMC to looped peptides / Binding of Control Serum Blood-Bank to Looped peptides / Binding of Control serum LUMC to linear peptides of the protein M of SARS-CoV Urbani / Binding of Control serum Blood-bank to linear peptides of the protein M of SARS-CoV Urbani / Binding of Control serum LUMC to looped peptides of the protein M of SARS-CoV Urbani / Binding of Control Serum Blood-Bank to Looped peptides of the protein M of SARS-CoV Urbani: unit not given here
[3] = system: rabbit serum obtained by immunizing a rabbit with the SARS-CoV strain Frankfurt 1; type: binding; set-up: Binding of a rabbit serum to linear peptides / Binding of a rabbit serum to looped peptides / Rabbit serum linear peptides / Rabbit serum looped peptides / Binding of a rabbit serum to linear peptides of protein N of SARS-CoV Urbani (Rabbit serum linear peptides) / Binding of a rabbit serum to looped/cyclic peptides of protein N of SARS-CoV Urbani (Rabbit serum looped peptides): unit not given here

Sequence | Binding of serum 1a to linear peptides of protein M of SARS-CoV Urbani [1] | Binding of serum 1a to looped/cyclic peptides of protein M of SARS-CoV Urbani [1] | Binding of serum 1b to linear peptides of protein M of SARS-CoV Urbani [1] | Binding of serum 1b to looped/cyclic peptides of protein M of SARS-CoV Urbani [1] | Binding of serum 2 to linear peptides of protein M of SARS-CoV Urbani [1] | Binding of serum 2 to looped/cyclic peptides of protein M of SARS-CoV Urbani [1] | Binding of serum 6 to linear peptides of protein M of SARS-CoV Urbani [1] | Binding of serum 6 to looped/cyclic peptides of protein M of SARS-CoV Urbani [1] | Binding of serum 37 to linear peptides of protein M of SARS-CoV Urbani [1] | Binding of serum 37 to looped/cyclic peptides of protein M of SARS-CoV Urbani [1] | Binding of serum 62 to linear peptides of protein M of SARS-CoV Urbani [1] | Binding of serum 62 to looped/cyclic peptides of protein M of SARS-CoV Urbani [1] | Binding of serum London to linear peptides of protein M of SARS-CoV Urbani [1] | Binding of serum London to looped/cyclic peptides of protein M of SARS-CoV Urbani [1] | Binding of serum SARS-green to linear peptides of protein M of SARS-CoV Urbani [1] | Binding of serum SARS-green to looped/cyclic peptides of protein M of SARS-CoV Urbani [1] | Binding of serum SARS-yellow to linear peptides of protein M of SARS-CoV Urbani [1] | Binding of serum SARS-yellow to looped/cyclic peptides of protein M of SARS-CoV Urbani [1] | Binding of Control Serum Blood-Bank to Looped peptides of the protein M of SARS-CoV Urbani [2] | Binding of Control serum Blood-bank to linear peptides of the protein M of SARS-CoV Urbani [2] | also measured
ETNILLNVPLRGTIV | 0.7 | 0.5 | 0.5 | 0.6 | 0.5 | 0.7 | 0.4 | 0.8 | 0.6 | 0.4 | 0.7 | 0.5 | 0.4 | 0.2 | 0.3 | 0.2 | 0.1 | 0.5 | 1.0 | 0.7 | Binding of Control serum LUMC to linear peptides of the protein M of SARS-CoV Urbani [2]: 0.3; Binding of Control serum LUMC to looped peptides of the protein M of SARS-CoV Urbani [2]: 0.9; Rabbit serum linear peptides [3]: 0.5; Rabbit serum looped peptides [3]: 0.0
FAAYNRYRIGNYKLN | 0.6 | 0.8 | 0.3 | 0.4 | 0.5 | 0.7 | 0.4 | 1.3 | 0.5 | 0.6 | 0.7 | 0.6 | 0.3 | 0.7 | 0.2 | 0.2 | 0.0 | 0.8 | 0.6 | 0.7 | Binding of Control serum LUMC to linear peptides of the protein M of SARS-CoV Urbani [2]: 0.3; Binding of Control serum LUMC to looped peptides of the protein M of SARS-CoV Urbani [2]: 0.7; Rabbit serum linear peptides [3]: 0.3; Rabbit serum looped peptides [3]: 0.6
